These results are taken from PMC3009956, “Human immunome, bioinformatic analyses using HLA supermotifs and the parasite genome, binding assays, studies of human T cell responses, and immunization of HLA-A*1101 transgenic mice including novel adjuvants provide a foundation for HLA-A03 restricted CD8^+T cell epitope based, adjuvanted vaccine …” (Immunome Research, 2010).

One assay deals with HLA-A*0301 (Homo sapiens, UniProt P04439). Kind of assay: MHC-peptide binding assay, inhibition of binding of radiolabeled standard peptide. The settings on record: read-out: MHC binding affinity HLA-A*0301. An excerpt: (§1) Assays were as described.
The next assay has as its target HLA-A*3301 (Homo sapiens, UniProt P04439, A270S/D185E/E176V/E277Q/E87N/F33T/G231S/H175R/I121M/I218V/I322F/K168Q/K210R/L300P/L318F/M331R/P217A/Q86R/Q94H/R138Q/T323A/T345S/T97I/V358M/Y195H). Described as above. The settings on record: read-out: MHC binding affinity HLA-A*3301.
Excerpt: as §1

The target of a further assay is HLA-A*3101 (Homo sapiens, UniProt P04439, A270S/D185E/E176V/E277Q/F33T/G231S/G80R/H175R/I121M/I218V/I322F/K168Q/L300P/L318F/M331R/P217A/Q94H/R138Q/T323A/T345S/T97I/V358M). Described as above. The following applies: read-out: MHC binding affinity HLA-A*3101.
Excerpt: as §1

The next assay has as its target HLA-A*1101 (Homo sapiens, UniProt P04439, A114D/D185E/E176A/F33Y/L180Q/S129P/T187R). The description is as above. The settings on record: unit not given in Table 1 (same values in Table 3 as IC50 nM), newly identified peptides, read-out: Affinity HLA-A*1101.
Excerpt: as §1

The target in another assay is HLA-A*6801 (Homo sapiens, UniProt P04439, A269V/D185E/E176V/E277Q/E87N/F33Y/G231S/I121M/I166T/I218V/L180W/L300P/L318F/N151K/P208A/P217A/Q86R/R169H/T345S). Described as above. The settings on record: read-out: MHC binding affinity HLA-A*6801.
Excerpt: as §1

The next assay deals with HLA-A*3001 (Homo sapiens, UniProt P04439, D140H/D185E/E176W/F33S/G80R/H175R/K168Q/R138E/R41S). The assay is described as above. The settings on record: read-out: MHC binding affinity HLA-A*3001.
Sequence of HLA-A*3001 (P04439 25-365 limits assumed, stated change not applied): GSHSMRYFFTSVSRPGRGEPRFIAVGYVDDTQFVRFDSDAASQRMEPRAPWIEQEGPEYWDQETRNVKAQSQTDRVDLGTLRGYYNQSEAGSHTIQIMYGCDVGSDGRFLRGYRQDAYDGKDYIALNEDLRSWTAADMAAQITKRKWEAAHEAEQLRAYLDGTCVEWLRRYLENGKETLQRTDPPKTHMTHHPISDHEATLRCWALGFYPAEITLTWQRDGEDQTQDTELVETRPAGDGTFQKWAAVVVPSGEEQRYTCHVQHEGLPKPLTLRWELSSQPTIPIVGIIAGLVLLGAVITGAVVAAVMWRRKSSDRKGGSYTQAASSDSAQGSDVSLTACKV
Excerpt: as §1

Assay [1] has as its system splenocytes of HLA-A*1101 transgenic mice. Kind of assay: Ex vivo IFN-γ ELISpot assay with splenocytes of immunized HLA-A*1101 transgenic mice. The settings on record: Figure 3b; mice immunized with mixture of peptides and adjuvants compared with LpKS9-AM9-RS9. Type of assay: in vivo. The protocol: To evaluate peptide immunogenicity, HLA-A*1101 transgenic mice were inoculated subcutaneously (s.c.) at the base of the tail using a 30-gauge needle with single peptides or a mixture of CD8^+ T cell peptides (50 μg of each peptide per mouse) and PADRE ([…]) emulsified in 20 μg of GLA-SE (TLR4 agonist) with or without Pam2Cys. Pam2Cys concentration was 5 mg/ml. For immunization with lipopeptides, HLA-A*1101 mice received 20 nmol lipopeptide dissolved in PBS or emulsified in GLA-SE. As controls, mice were injected with PBS or PBS/GLA-SE. For the lipopeptide immunizations, the mice were vaccinated twice at intervals of three weeks. For the peptide immunizations, mice were immunized three times at intervals of two weeks. For challenge studies, mice were immunized with peptide emulsions and challenged intraperitoneally (i.p.) 14 days post-immunization using 10,000 Type II parasites.
Mice were euthanized 7 to 14 days after immunization. […]
PBMC were obtained, HLA haplotype was determined, and they were processed and cryopreserved as described. […] Results were expressed as number of spot forming cells (SFCs) per 10^6 PBMCs or per 10^6 murine splenocytes.
Two-tailed P values < 0.05 were considered statistically significant. […] The experiment in Figure 7b determined immune response and imaged mice in parallel.

Where no end group is shown, it is not given here.

Regarding AVVSLLRLLK, the IC50 on HLA-A*0301 worked out at 17 nM; on HLA-A*3301, 1100 nM; on HLA-A*3101, 1300 nM; at HLA-A*1101, 34 nM; at HLA-A*6801, 94 nM; at HLA-A*3001 it was 8.1 nM.

Turning to RSFKDLLKK, in assay [1], the “IFN-γ production on stimulation of spleen cells by the peptide” value is “not significant”.

In the case of SSAYVFSVK, the IC50 is 12 nM on HLA-A*0301; 181 nM at HLA-A*3301; 97 nM at HLA-A*3101; 10 nM at HLA-A*1101; 2.1 nM on HLA-A*6801; 1830 nM at HLA-A*3001.

STFWPCLLR: the IC50 at HLA-A*0301 was determined as 22 nM; at HLA-A*3301, 3.4 nM; on HLA-A*3101, 1.2 nM; at HLA-A*1101 it was 10 nM; on HLA-A*6801 it was 0.97 nM; at HLA-A*3001, 1270 nM.
